Measured values: publication PMC4992173, “Divergent synthesis and identification of the cellular targets of deoxyelephantopins” (Nature Communications, 2016)

How the values were obtained:
[1] = molecular target: T1, Thioredoxin domain-containing protein 12 (TXNDC12) (Homo sapiens, UniProt O95881); assay: SILAC competitive profiling with probe 24c in MCF7 lysates: TXNDC12; format: binding; details: 1 h, then 10 µM 24c
T1 construct: endogenous in cells; host or cells: MCF7
From the text: In our efforts to determine the direct molecular targets of deoxyelephantopin we first performed a gel-based competitive in situ proteomic profiling assay[41] […] While the greater conformational flexibility of probe 24c could potentially lead to more promiscuous target engagement relatively to deoxyelephantopin, it was favoured based on the fact that an alkyne moiety appended to the rigid scaffold of deoxyelephantopin may hinder some of its interactions. MCF7 cells were pretreated with various concentrations of deoxyelephantopin for 4 h, harvested, lysed and the lysates were treated with the fluorogenic probe 24c-Cy3 (10 μM; Supplementary Fig. 10). […] Furthermore, cells were pretreated with 20 μM concentration of deoxyelephantopin or 24c and the proteomic profiles were compared (Fig. 6b, Supplementary Fig. 11). Multiple bands were detected that were equally competed by both DEP and 24c, thus again confirming that 24c can be used as an acceptable clickable analogue of deoxyelephantopin in pulldown assays. Having established the optimal labelling conditions by SDS–PAGE, we next carried out a mass spectrometry-based competitive profiling assay[42] coupled with the method of stable isotope labelling of amino acids in culture (SILAC)[43]. […]
visualization were performed as described above. Images were quantified with ImageJ and kinetics values were calculated using GraphPad Prism (V6.03). […]

[2] = molecular target: T2, PPARγ (Homo sapiens, UniProt P37231); assay: Gel-based in situ competition of PPARγ overexpressed in HeLa cells; format: cell-based; design: host or cells: HeLa; details: HeLa cells expressing PPARγ, 20 µM in situ 4 h, then 10 µM 24c-Cy3
T2 sequence (P37231 1-505): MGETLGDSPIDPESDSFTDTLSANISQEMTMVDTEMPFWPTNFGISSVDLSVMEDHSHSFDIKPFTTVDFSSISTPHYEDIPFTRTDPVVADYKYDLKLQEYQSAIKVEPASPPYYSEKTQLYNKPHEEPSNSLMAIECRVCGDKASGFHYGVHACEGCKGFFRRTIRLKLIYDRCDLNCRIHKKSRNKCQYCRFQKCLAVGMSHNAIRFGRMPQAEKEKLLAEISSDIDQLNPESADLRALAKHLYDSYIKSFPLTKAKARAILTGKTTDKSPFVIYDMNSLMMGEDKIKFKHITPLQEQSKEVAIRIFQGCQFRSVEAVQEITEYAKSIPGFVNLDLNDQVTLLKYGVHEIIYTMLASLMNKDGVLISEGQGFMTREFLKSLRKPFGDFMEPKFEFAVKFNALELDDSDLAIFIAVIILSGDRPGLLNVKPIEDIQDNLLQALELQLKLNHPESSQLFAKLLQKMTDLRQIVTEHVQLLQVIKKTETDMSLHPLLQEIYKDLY

T1 sequence (O95881 27-172): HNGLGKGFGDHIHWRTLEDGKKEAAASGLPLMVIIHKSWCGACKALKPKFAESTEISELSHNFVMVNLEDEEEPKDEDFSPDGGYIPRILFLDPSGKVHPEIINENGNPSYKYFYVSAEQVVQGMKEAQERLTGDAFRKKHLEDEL

C=C(C)C(=O)O[C@H]1CC2=C[C@@H](C/C(C)=C/[C@H]3OC(=O)C(=C)[C@H]13)OC2=O [deoxyelephantopin]
SILAC ratio 20 µM Deoxyelephantopin/DMSO with 24c [1]: 0.12 | competition of PPARγ labelling by 24c-Cy3 [2]: efficient competition
